Experimental data published in ChEMBL document CHEMBL1128694, “Specific inhibition of poly(ADP-ribose) glycohydrolase by adenosine diphosphate (hydroxymethyl)pyrrolidinediol” (J Med Chem, 1995).

Columns and labels:
Conditions in all cases: Meleagris gallopavo
[1] = molecular target: T1, ADP-ribosyltransferase (Homo sapiens) (UniProt P52961); assay: Inhibition of ADP-ribosyltransferase 1 that catalyze ADP-ribosyltransferase was measured at 1000 uM concentration
T1 sequence (whole entry): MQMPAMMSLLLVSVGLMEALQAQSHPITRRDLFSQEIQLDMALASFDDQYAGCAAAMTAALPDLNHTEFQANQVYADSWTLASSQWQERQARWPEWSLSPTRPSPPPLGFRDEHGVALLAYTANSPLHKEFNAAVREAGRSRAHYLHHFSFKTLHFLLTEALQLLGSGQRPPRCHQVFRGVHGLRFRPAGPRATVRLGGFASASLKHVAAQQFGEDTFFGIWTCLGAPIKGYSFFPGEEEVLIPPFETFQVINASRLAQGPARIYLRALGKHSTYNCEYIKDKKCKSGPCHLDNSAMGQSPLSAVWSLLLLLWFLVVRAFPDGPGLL

[2] = molecular target: T1, ADP-ribosyltransferase (Homo sapiens); assay: Inhibition of ADP-ribosyltransferase 1 that catalyze ADP-ribosyltransferase was measured at 0 uM concentration
[3] = molecular target: T1, ADP-ribosyltransferase (Homo sapiens); assay: Inhibition of ADP-ribosyltransferase 1 that catalyze ADP-ribosyltransferase was measured at 100 uM concentration

Activity [1]: 0.05 units/assay | Activity [2]: 0.06 units/assay | Activity [3]: 0.07 units/assay
Compound: Nc1ncnc2c1ncn2[C@@H]1O[C@H](COP(=O)(O)OP(=O)(O)OC[C@H]2NC[C@H](O)[C@@H]2O)[C@@H](O)[C@H]1O
